SMILES strings stand for the structures. pIC50: −log10 of the molar value. Read-outs that look alike come from different tables or passages of the source.

A word on the pIC50: it is the negative decadic logarithm of the IC50, by convention in mol/L. In general, IC50 refers to the midpoint of a concentration-inhibition curve.

The subject of assay [1] is H1650 cells. Nature of the assay: CellTiterGlo (CTG) cell viability, 3D, 120 h, H1650 (Example 8). It counts as cell-based, human. The note with it: Homo sapiens, NCI-H1650, H1650 3D. In general terms: Cellular ATP, detected with luciferase, serves as a proxy for viable cell number.
Assay [2] relates to ALL-SIL cells. Nature of the assay: CellTiterGlo (CTG) cell viability, 72 h, ALL-SIL (Example 8). It counts as cell-based. Here is the method: ALL-SIL cells were cultivated in RPMI supplemented with 20% heat inactivated fetal bovine serum, penicillin (100 IU/ml), streptomycin (100 μg/ml) and L-glutamine (2 mM). Cell lines were cultured at 37° C. in a humidified atmosphere containing 5% CO2. Cells were seeded in 96 well clear bottom plates (96 well clear-bottom, white, Corning reference 3903) and exposed to the payloads or ADCs for 72 h (serially diluted; 9 concentrations each, triplicates). Effects of payloads or ADCs on cell viability were assessed after 3 days of incubation at 37° C./5% CO2 by quantification of cellular ATP levels using CellTiterGlo at 75 μL reagent/well. All the conditions were tested in triplicates. Luminescence was quantified on a multipurpose plate reader. IC50s were calculated using standard four-parametric curve fitting. […] Each experiment was performed at least twice, with results being reproducible.

The test system of assay [3] is DND-41 cells. Briefly: CellTiterGlo (CTG) cell viability, 72 h, DND-41 (Example 8). The assay is classed as cell-based. Here is the method: DND-41 cells were cultivated in RPMI supplemented with 10% heat inactivated fetal bovine serum, penicillin (100 IU/ml), streptomycin (100 μg/ml) and L-glutamine (2 mM). Cell lines were cultured at 37° C. in a humidified atmosphere containing 5% CO2. […] Effects of payloads or ADCs on cell viability were assessed after 3 days of incubation at 37° C./5% CO2 by quantification of cellular ATP levels using CellTiterGlo at 75 μL reagent/well. All the conditions were tested in triplicates. Luminescence was quantified on a multipurpose plate reader. IC50s were calculated using standard four-parametric curve fitting.

Where [4] appears, read: experiment n1, read-out: H1650 3D CTG IC50 n1.
Setting [5] is: experiment n2, read-out: H1650 3D CTG IC50 n2.
The mark [6] stands for this setting: mean of n1 and n2, read-out: H1650 3D CTG IC50 Mean of n1 and n2.
Where [7] appears, read: experiment n1, read-out: ALLSIL CTG 72 h IC50 nM n1.
The mark [8] stands for this setting: experiment n2, read-out: ALLSIL CTG 72 h IC50 nM n2.
The mark [9] stands for this setting: mean of n1 and n2, read-out: ALLSIL CTG 72 h IC50 nM Mean of n1 and n2.
[10] abbreviates: DND41, experiment n1, read-out: DND41 CTG 72 h IC50 nM n1.
The mark [11] stands for this setting: DND41, experiment n2, read-out: DND41 CTG 72 h IC50 nM n2.
The mark [12] stands for this setting: DND41, mean of n1 and n2, read-out: DND41 CTG 72 h IC50 nM Mean of n1 and n2.

For the compound `Cc1c(Nc2nc3ccccc3s2)nnc2c1CCCN2c1nc(C(=O)O)c(CCCOc2ccc(C#CCN(C)C)cc2F)s1` [P1, 2-[3-(1,3-Benzothiazol-2-ylamino)-4-methyl-6,7-dihydro-5H-pyrido[2,3-c]pyridazin-8-yl]-5-[3-[4-[3-(dimethylamino)prop-1-ynyl]-2-fluoro-phenoxy]propyl]thiazole-4-carboxylic acid], the values for the pIC50 in assay [1] (setting [4]), in assay [1] (setting [5]) and in assay [1] (setting [6]) were 9.29, 8.89 and 9.05, respectively. For the same compound, the IC50 is 0.38 nM in assay [2] (setting [7]); 0.14 nM in assay [2] (setting [8]); 0.26 nM in assay [2] (setting [9]); 1.3 nM in assay [3] (setting [10]); 0.26 nM in assay [3] (setting [11]); 0.78 nM in assay [3] (setting [12]).
Turning to `Cc1c(Nc2nc3ccccc3s2)nnc2c1CCCN2c1nc(C(=O)O)c(CCCOc2ccc(C#CC(C)N3CCN(C)CC3)cc2F)s1` (stereo not drawn) [P8, 2-[3-(1,3-Benzothiazol-2-ylamino)-4-methyl-6,7-dihydro-5H-pyrido[2,3-c]pyridazin-8-yl]-5-[3-[2-fluoro-4-[3-(4-methylpiperazin-1-yl)but-1-ynyl]phenoxy]propyl]thiazole-4-carboxylic acid], the results for the pIC50 in assay [1] (setting [4]), in assay [1] (setting [5]) and in assay [1] (setting [6]) were 9.15, 8.74 and 8.90, respectively. Moreover, the IC50 worked out at 0.02 nM in assay [2] (setting [7]); 0.03 nM in assay [2] (setting [8]); 0.02 nM in assay [2] (setting [9]); 0.69 nM in assay [3] (setting [10]); 0.41 nM in assay [3] (setting [11]); 0.55 nM in assay [3] (setting [12]).
Consider `Cc1c(Nc2nc3ccccc3s2)nnc2c1CCCN2c1nc(C(=O)O)c(CCCOc2ccc(C#CCN3CCCC3)cc2F)s1` [P9, 2-[3-(1,3-Benzothiazol-2-ylamino)-4-methyl-6,7-dihydro-5H-pyrido[2,3-c]pyridazin-8-yl]-5-[3-[2-fluoro-4-(3-pyrrolidin-1-ylprop-1-ynyl)phenoxy]propyl]thiazole-4-carboxylic acid], for which the figures for the negative-log IC50 (pIC50) in assay [1] (setting [4]), in assay [1] (setting [5]) and in assay [1] (setting [6]) were 9.15, 8.85 and 8.98, respectively. The IC50 was determined as 3.31 nM in assay [2] (setting [7]); 1.1 nM in assay [2] (setting [8]); 2.21 nM in assay [2] (setting [9]); 21.8 nM in assay [3] (setting [10]); 19.3 nM in assay [3] (setting [11]); 20.6 nM in assay [3] (setting [12]).
For the compound `Cc1c(Nc2nc3ccccc3s2)nnc2c1CCCN2c1nc(C(=O)O)c(CCCOc2ccc(C#CCN3CCN(C)CC3)cc2F)s1` [P10, 2-[3-(1,3-Benzothiazol-2-ylamino)-4-methyl-6,7-dihydro-5H-pyrido[2,3-c]pyridazin-8-yl]-5-[3-[2-fluoro-4-[3-(4-methylpiperazin-1-yl)prop-1-ynyl]phenoxy]propyl] thiazole-4-carboxylic acid], the results for the negative logarithm of the IC50 (pIC50) in assay [1] (setting [4]), in assay [1] (setting [5]) and in assay [1] (setting [6]) were 9.52, 9.10 and 9.26, respectively. Besides, the “ALLSIL CTG 72 h IC50 nM n1” value in assay [2] (experiment n1) is “<Cmin”. The IC50 in assay [2] (setting [8]) was found to be 0.01 nM; in assay [2] (setting [9]), 0.01 nM; in assay [3] (setting [10]), 0.2 nM; in assay [3] (setting [11]), 0.29 nM; in assay [3] (setting [12]) it was 0.25 nM.
As to `CCN(C)CC#Cc1ccc(OCCCc2sc(N3CCCc4c3nnc(Nc3nc5ccccc5s3)c4C)nc2C(=O)O)c(F)c1` [P13, 2-[3-(1,3-Benzothiazol-2-ylamino)-4-methyl-6,7-dihydro-5H-pyrido[2,3-c]pyridazin-8-yl]-5-[3-[4-[3-[ethyl(methyl)amino]prop-1-ynyl]-2-fluoro-phenoxy]propyl]thiazole-4-carboxylic acid], the pIC50 in assay [1] (setting [4]) was 8.74; in assay [1] (setting [5]), 8.52; in assay [1] (setting [6]), 8.62. In addition, the IC50 in assay [2] (setting [7]) is 2.6 nM; in assay [2] (setting [8]), 1.44 nM; in assay [2] (setting [9]), 2.02 nM; in assay [3] (setting [10]), 11.8 nM; in assay [3] (setting [11]), 12.1 nM; in assay [3] (setting [12]) it was 11.9 nM.
Take `Cc1c(Nc2nc3ccccc3s2)nnc2c1CCCN2c1nc(C(=O)O)c(CCCOc2ccc(C#CCN3CCNCC3)cc2F)s1` [P17, 2-[3-(1,3-Benzothiazol-2-ylamino)-4-methyl-6,7-dihydro-5H-pyrido[2,3-c]pyridazin-8-yl]-5-[3-[2-fluoro-4-(3-piperazin-1-ylprop-1-ynyl)phenoxy]propyl]thiazole-4-carboxylic acid]: the negative-log IC50 (pIC50) is 8.50 in assay [1] (setting [4]), 8.28 in assay [1] (setting [5]) and 8.37 in assay [1] (setting [6]). Further, the IC50 was 0.13 nM in assay [2] (setting [7]); 0.26 nM in assay [2] (setting [8]); 0.2 nM in assay [2] (setting [9]); 0.4 nM in assay [3] (setting [10]); 0.7 nM in assay [3] (setting [11]); 0.55 nM in assay [3] (setting [12]).
Regarding `Cc1c(Nc2nc3ccccc3s2)nnc2c1CCCN2c1ccc(-c2cnn(C[C@]34C[C@]5(C)C[C@](C)(C3)C[C@@](OCCNCC[C@H](O)CO)(C5)C4)c2C)c(C(=O)O)n1` [P19, 6-{3-[(1,3-benzothiazol-2-yl)amino]-4-methyl-6,7-dihydropyrido[2,3-c]pyridazin-8(5H)-yl}-3-(1-{[3-(2-{[(3S)-3,4-dihydroxybutyl]amino}ethoxy)-5,7-dimethyladamantan-1-yl]methyl}-5-methyl-1H-pyrazol-4-yl)pyridine-2-carboxylic acid], the results for the pIC50 in assay [1] (setting [4]), in assay [1] (setting [5]) and in assay [1] (setting [6]) were 8.54, 8.84 and 8.67, respectively. Further, the IC50 amounted to 4.02 nM in assay [2] (setting [7]); 3.5 nM in assay [2] (setting [8]); 3.76 nM in assay [2] (setting [9]); 10.8 nM in assay [3] (setting [10]); 7.2 nM in assay [3] (setting [11]); 9 nM in assay [3] (setting [12]).
As to `Cc1c(Nc2nc3ccccc3s2)nnc2c1CCCN2c1ccc(-c2cnn(CC34CC5(C)CC(C)(C3)CC(OCCN3CCN(C)CC3)(C5)C4)c2C)c(C(=O)O)n1` [P20, 6-[3-(1,3-benzothiazol-2-ylamino)-4-methyl-6,7-dihydro-5H-pyrido[2,3-c]pyridazin-8-yl]-3-[1-[[3,5-dimethyl-7-[2-(4-methylpiperazin-1-yl)ethoxy]-1-adamantyl]methyl]-5-methyl-pyrazol-4-yl]pyridine-2-carboxylic acid], the pIC50 in assay [1] (setting [4]) was 9.44; in assay [1] (setting [5]) it was 9.30; in assay [1] (setting [6]), 9.37. Moreover, the IC50 in assay [2] (setting [7]) worked out at 0.02 nM; in assay [2] (setting [8]) it was 0.08 nM; in assay [2] (setting [9]) it was 0.05 nM; in assay [3] (setting [10]) it was 0.38 nM; in assay [3] (setting [11]) it was 0.24 nM; in assay [3] (setting [12]) it was 0.31 nM.
On to `Cc1c(Nc2nc3ccccc3s2)nnc2c1CCCN2c1ccc(-c2cnn(C[C@]34C[C@]5(C)C[C@](C)(C3)C[C@@](OCCNCCCCO)(C5)C4)c2C)c(C(=O)O)n1` [P22, 6-[3-(1,3-benzothiazol-2-ylamino)-4-methyl-6,7-dihydro-5H-pyrido[2,3-c]pyridazin-8-yl]-3-[1-[[3-[2-(4-hydroxybutylamino)ethoxy]-5,7-dimethyl-1-adamantyl]methyl]-5-methyl-pyrazol-4-yl]pyridine-2-carboxylic acid], for which the pIC50 in assay [1] (setting [4]) was 9.11; in assay [1] (setting [5]) it was 9.10; in assay [1] (setting [6]), 9.11. The IC50 in assay [2] (setting [7]) is 0.26 nM; in assay [2] (setting [8]), 0.5 nM; in assay [2] (setting [9]) it was 0.38 nM; in assay [3] (setting [10]) it was 0.45 nM; in assay [3] (setting [11]), 0.26 nM; in assay [3] (setting [12]), 0.36 nM.
With `CNCC#Cc1ccc(OCCCc2sc(N(CCCO)c3cc(C)c(Nc4nc5ccccc5s4)nn3)nc2C(=O)O)c(F)c1` [P45, 2-[[6-(1,3-Benzothiazol-2-ylamino)-5-methyl-pyridazin-3-yl]-(3-hydroxypropyl)amino]-5-[3-[2-fluoro-4-[3-(methylamino)prop-1-ynyl]phenoxy]propyl]thiazole-4-carboxylic acid], the IC50 in assay [2] (setting [7]) turned out to be 3.11 nM; in assay [2] (setting [8]), 4.01 nM; in assay [2] (setting [9]), 3.56 nM; in assay [3] (setting [10]), 17 nM; in assay [3] (setting [11]), 16.8 nM; in assay [3] (setting [12]), 16.9 nM.
For `CNCC#Cc1ccc(OCCCc2sc(N(CCCC(O)CO)c3cc(C)c(Nc4nc5ccccc5s4)nn3)nc2C(=O)O)c(F)c1` (stereo not drawn) [P46, 2-[[6-(1,3-Benzothiazol-2-ylamino)-5-methyl-pyridazin-3-yl]-(4,5-dihydroxypentyl)amino]-5-[3-[2-fluoro-4-[3-(methylamino)prop-1-ynyl]phenoxy]propyl]thiazole-4-carboxylic acid], the IC50 worked out at 62.2 nM in assay [2] (setting [7]); 50 nM in assay [2] (setting [8]); 56.1 nM in assay [2] (setting [9]); 212 nM in assay [3] (setting [10]); 220 nM in assay [3] (setting [11]); 216 nM in assay [3] (setting [12]).

These data come from patent US20240269304A1, “BCL-XL INHIBITOR ANTIBODY-DRUG CONJUGATES AND METHODS OF USE THEREOF” (Novartis AG, priority 2020, published 2024).
